According to US20260014232A1, “Pharmaceutical Composition of GLP-1 and GIP Receptor Dual Agonist and Use Thereof” (Jiangsu Hengrui Pharmaceuticals Co., Ltd., priority 2021, published 2026):
Starred links: 1 amine or outer side, 2 acyl side, 3 side chain; linkers in the order of their positions; H or OH if unused. Non-standard residues stand in square brackets, D forms with d. Residues, ends and D or L forms follow the SMILES beside them. Groups on a side chain read outwards from the residue. *: point of attachment. C20 diacid = O=C(O)CCCCCCCCCCCCCCCCCCC(=O)*; γGlu = O=C(O)[C@H](CCC(=O)[*:2])N[*:1]; AEEA = NCCOCCOCC(=O)O; Aib = CC(C)(N)C(=O)O

Tests used:
[1] = Body weight of diet-induced-obesity mice after subcutaneous administration; type: in vivo, C57BL/6 mice; settings: for rate of body weight change: DIO mice
Protocol: (§1) High-fat food-induced-obesity male C57BL/6 mice (weighing 35-55 g, aged 10-12 weeks, purchased from Shanghai Jiesijie Laboratory Animal Co., Ltd.) were tested. […] According to the experimental design, the body weight of each mouse was measured and recorded on day 0, day 3, day 6, and so on to day 27, the average body weight of each group of mice was calculated, and body weight change curves were plotted by taking the body weight on the first day as the standard. At the end, the fat and other visceral organs of each part of the mice were taken out and weighed, and the viscera/brain ratio for fat in each part of each mouse was calculated. The effect of the drug on the fat was determined by comparing the change in the viscera/brain ratio for fat of different parts of each group of mice.

[2] = Viscera/brain ratio for fat mass in diet-induced-obesity mice; type: in vivo, C57BL/6 mice; settings: DIO mice; for viscera/brain ratio for fat mass, Epididymal fat / viscera/brain ratio for fat mass, Inguinal fat / viscera/brain ratio for fat mass, Mesenteric fat / viscera/brain ratio for fat mass, Perirenal fat / viscera/brain ratio for fat mass, Scapular fat / viscera/brain ratio for fat mass, Subcutaneous fat: X ± s
Protocol: as §1

Question: Which results are given for `CC[C@H](C)[C@H](NC(=O)[C@H](CCCCN)NC(=O)[C@H](CCC(=O)O)NC(=O)[C@H](CCCCNC(=O)COCCOCCNC(=O)COCCOCCNC(=O)CC[C@H](NC(=O)CCCCCCCCCCCCCCCCCCC(=O)O)C(=O)O)NC(=O)[C@H](Cc1ccc(O)cc1)NC(=O)[C@@H](NC(=O)[C@H](CO)NC(=O)[C@H](Cc1ccc(O)cc1)NC(=O)[C@H](CC(=O)O)NC(=O)[C@H](CO)NC(=O)[C@@H](NC(=O)[C@H](Cc1ccccc1)NC(=O)[C@@H](NC(=O)CNC(=O)[C@H](CCC(=O)O)NC(=O)C(C)(C)NC(=O)[C@@H](N)Cc1ccc(O)cc1)[C@@H](C)O)[C@@H](C)O)[C@@H](C)CC)C(=O)N[C@@H](C)C(=O)N[C@@H](C)C(=O)N[C@@H](CCC(N)=O)C(=O)N[C@@H](CCC(=O)O)C(=O)N[C@@H](Cc1ccccc1)C(=O)N[C@H](C(=O)N[C@@H](CC(N)=O)C(=O)N[C@@H](Cc1c[nH]c2ccccc12)C(=O)N[C@@H](CC(C)C)C(=O)N[C@@H](CC(C)C)C(=O)N[C@@H](C)C(=O)NCC(=O)NCC(=O)N1CCC[C@H]1C(=O)N[C@@H](CO)C(=O)N[C@@H](CO)C(=O)NCC(=O)N[C@@H](C)C(=O)N1CCC[C@H]1C(=O)N1CCC[C@H]1C(=O)N1CCC[C@H]1C(=O)N[C@@H](CO)C(N)=O)C(C)C` [Compound 18#] (H-Y[Aib]EGTFTSDYSIYK([AEEA-AEEA-γGlu-C20 diacid])EKIAAQEFVNWLLAGGPSSGAPPPS-NH2)?
Answer: rate of body weight change ([1]; 3 nmol/kg s.c. every 3 days, day 0 (before administration)): 0%; rate of body weight change ([1]; 3 nmol/kg s.c. every 3 days, day 1): −5%; rate of body weight change ([1]; 3 nmol/kg s.c. every 3 days, day 2): −6.3%; rate of body weight change ([1]; 3 nmol/kg s.c. every 3 days, day 3): −5.8%; rate of body weight change ([1]; 3 nmol/kg s.c. every 3 days, day 4): −9.1%; rate of body weight change ([1]; 3 nmol/kg s.c. every 3 days, day 5): −10.3%; rate of body weight change ([1]; 3 nmol/kg s.c. every 3 days, day 6): −10%; rate of body weight change ([1]; 3 nmol/kg s.c. every 3 days, day 7): −13%; rate of body weight change ([1]; 3 nmol/kg s.c. every 3 days, day 8): −13.9%; rate of body weight change ([1]; 3 nmol/kg s.c. every 3 days, day 9): −13.9%; rate of body weight change ([1]; 3 nmol/kg s.c. every 3 days, day 10): −16.6%; rate of body weight change ([1]; 3 nmol/kg s.c. every 3 days, day 11): −16.4%; rate of body weight change ([1]; 3 nmol/kg s.c. every 3 days, day 12): −15.7%; rate of body weight change ([1]; 3 nmol/kg s.c. every 3 days, day 13): −18.2%; rate of body weight change ([1]; 3 nmol/kg s.c. every 3 days, day 14): −17.1%; rate of body weight change ([1]; 3 nmol/kg s.c. every 3 days, day 15): −15.7%; rate of body weight change ([1]; 3 nmol/kg s.c. every 3 days, day 16): −18.6%; rate of body weight change ([1]; 3 nmol/kg s.c. every 3 days, day 17): −18.3%; rate of body weight change ([1]; 3 nmol/kg s.c. every 3 days, day 18): −17.9%; rate of body weight change ([1]; 3 nmol/kg s.c. every 3 days, day 19): −20.5%; rate of body weight change ([1]; 3 nmol/kg s.c. every 3 days, day 20): −19.8%; rate of body weight change ([1]; 3 nmol/kg s.c. every 3 days, day 21): −17.8%; rate of body weight change ([1]; 3 nmol/kg s.c. every 3 days, day 22): −19.3%; rate of body weight change ([1]; 3 nmol/kg s.c. every 3 days, day 23): −19.1%; rate of body weight change ([1]; 3 nmol/kg s.c. every 3 days, day 24): −17.3%; rate of body weight change ([1]; 3 nmol/kg s.c. every 3 days, day 25): −19.9%; rate of body weight change ([1]; 3 nmol/kg s.c. every 3 days, day 26): −18.8%; rate of body weight change ([1]; 3 nmol/kg s.c. every 3 days, day 27): −16.1%; rate of body weight change ([1]; 3 nmol/kg s.c. every 3 days, day 28): −19.2%; rate of body weight change ([1]; 10 nmol/kg s.c. every 3 days, day 0 (before administration)): 0%; rate of body weight change ([1]; 10 nmol/kg s.c. every 3 days, day 1): −6.2%; rate of body weight change ([1]; 10 nmol/kg s.c. every 3 days, day 2): −8.6%; rate of body weight change ([1]; 10 nmol/kg s.c. every 3 days, day 3): −9.4%; rate of body weight change ([1]; 10 nmol/kg s.c. every 3 days, day 4): −12.7%; rate of body weight change ([1]; 10 nmol/kg s.c. every 3 days, day 5): −14.5%; rate of body weight change ([1]; 10 nmol/kg s.c. every 3 days, day 6): −15%; rate of body weight change ([1]; 10 nmol/kg s.c. every 3 days, day 7): −18.3%; rate of body weight change ([1]; 10 nmol/kg s.c. every 3 days, day 8): −20.1%; rate of body weight change ([1]; 10 nmol/kg s.c. every 3 days, day 9): −20.3%; rate of body weight change ([1]; 10 nmol/kg s.c. every 3 days, day 10): −23.4%; rate of body weight change ([1]; 10 nmol/kg s.c. every 3 days, day 11): −23.9%; rate of body weight change ([1]; 10 nmol/kg s.c. every 3 days, day 12): −23.5%; rate of body weight change ([1]; 10 nmol/kg s.c. every 3 days, day 13): −26.4%; rate of body weight change ([1]; 10 nmol/kg s.c. every 3 days, day 14): −25.1%; rate of body weight change ([1]; 10 nmol/kg s.c. every 3 days, day 15): −23.4%; rate of body weight change ([1]; 10 nmol/kg s.c. every 3 days, day 16): −26.6%; rate of body weight change ([1]; 10 nmol/kg s.c. every 3 days, day 17): −25.7%; rate of body weight change ([1]; 10 nmol/kg s.c. every 3 days, day 18): −24.6%; rate of body weight change ([1]; 10 nmol/kg s.c. every 3 days, day 19): −27.5%; rate of body weight change ([1]; 10 nmol/kg s.c. every 3 days, day 20): −27.3%; rate of body weight change ([1]; 10 nmol/kg s.c. every 3 days, day 21): −24.8%; rate of body weight change ([1]; 10 nmol/kg s.c. every 3 days, day 22): −28.1%; rate of body weight change ([1]; 10 nmol/kg s.c. every 3 days, day 23): −27.1%; rate of body weight change ([1]; 10 nmol/kg s.c. every 3 days, day 24): −26%; rate of body weight change ([1]; 10 nmol/kg s.c. every 3 days, day 25): −28.5%; rate of body weight change ([1]; 10 nmol/kg s.c. every 3 days, day 26): −27.8%; rate of body weight change ([1]; 10 nmol/kg s.c. every 3 days, day 27): −24.8%; rate of body weight change ([1]; 10 nmol/kg s.c. every 3 days, day 28): −28.2%; rate of body weight change ([1]; 100 nmol/kg s.c. every 3 days, day 0 (before administration)): 0%; rate of body weight change ([1]; 100 nmol/kg s.c. every 3 days, day 1): −6.3%; rate of body weight change ([1]; 100 nmol/kg s.c. every 3 days, day 2): −10.9%; rate of body weight change ([1]; 100 nmol/kg s.c. every 3 days, day 3): −13.2%; rate of body weight change ([1]; 100 nmol/kg s.c. every 3 days, day 4): −15.7%; rate of body weight change ([1]; 100 nmol/kg s.c. every 3 days, day 5): −19.2%; rate of body weight change ([1]; 100 nmol/kg s.c. every 3 days, day 6): −21.8%; rate of body weight change ([1]; 100 nmol/kg s.c. every 3 days, day 7): −24.7%; rate of body weight change ([1]; 100 nmol/kg s.c. every 3 days, day 8): −27.6%; rate of body weight change ([1]; 100 nmol/kg s.c. every 3 days, day 9): −29.6%; rate of body weight change ([1]; 100 nmol/kg s.c. every 3 days, day 10): −31.6%; rate of body weight change ([1]; 100 nmol/kg s.c. every 3 days, day 11): −33.7%; rate of body weight change ([1]; 100 nmol/kg s.c. every 3 days, day 12): −34.4%; rate of body weight change ([1]; 100 nmol/kg s.c. every 3 days, day 13): −35.6%; rate of body weight change ([1]; 100 nmol/kg s.c. every 3 days, day 14): −36.7%; rate of body weight change ([1]; 100 nmol/kg s.c. every 3 days, day 15): −35.7%; rate of body weight change ([1]; 100 nmol/kg s.c. every 3 days, day 17): −38.2%; rate of body weight change ([1]; 100 nmol/kg s.c. every 3 days, day 18): −37.8%; rate of body weight change ([1]; 100 nmol/kg s.c. every 3 days, day 19): −38.5%; rate of body weight change ([1]; 100 nmol/kg s.c. every 3 days, day 20): −39%; rate of body weight change ([1]; 100 nmol/kg s.c. every 3 days, day 21): −37.4%; rate of body weight change ([1]; 100 nmol/kg s.c. every 3 days, day 22): −38.3%; rate of body weight change ([1]; 100 nmol/kg s.c. every 3 days, day 23): −38%; rate of body weight change ([1]; 100 nmol/kg s.c. every 3 days, day 24): −36.8%; rate of body weight change ([1]; 100 nmol/kg s.c. every 3 days, day 25): −38.6%; rate of body weight change ([1]; 100 nmol/kg s.c. every 3 days, day 26): −38.9%; rate of body weight change ([1]; 100 nmol/kg s.c. every 3 days, day 27): −36.8%; rate of body weight change ([1]; 100 nmol/kg s.c. every 3 days, day 28): −37.9%; body weight reduced ([1]; high-fat food-induced-obesity mice, 10 nmol/kg, day 27): more than 20.0%; viscera/brain ratio for fat mass, Epididymal fat ([2]; 3 nmol/kg): 254.6 ± 113.4 %; viscera/brain ratio for fat mass, Inguinal fat ([2]; 3 nmol/kg): 281.5 ± 140.1 %; viscera/brain ratio for fat mass, Mesenteric fat ([2]; 3 nmol/kg): 84.8 ± 41.3 %; viscera/brain ratio for fat mass, Perirenal fat ([2]; 3 nmol/kg): 159.2 ± 87.6 %; viscera/brain ratio for fat mass, Scapular fat ([2]; 3 nmol/kg): 48 ± 15.3%; viscera/brain ratio for fat mass, Subcutaneous fat ([2]; 3 nmol/kg): 129 ± 62 %; viscera/brain ratio for fat mass, Epididymal fat ([2]; 10 nmol/kg): 211.7 ± 80.7 %; viscera/brain ratio for fat mass, Inguinal fat ([2]; 10 nmol/kg): 194.4 ± 86.2 %; viscera/brain ratio for fat mass, Mesenteric fat ([2]; 10 nmol/kg): 53.3 ± 14.6 %; viscera/brain ratio for fat mass, Perirenal fat ([2]; 10 nmol/kg): 109.4 ± 57.1 %; viscera/brain ratio for fat mass, Scapular fat ([2]; 10 nmol/kg): 42.5 ± 17%; viscera/brain ratio for fat mass, Subcutaneous fat ([2]; 10 nmol/kg): 122 ± 73.2 %; viscera/brain ratio for fat mass, Epididymal fat ([2]; 100 nmol/kg): 102.9 ± 32.2 %; viscera/brain ratio for fat mass, Inguinal fat ([2]; 100 nmol/kg): 92 ± 34.5 %; viscera/brain ratio for fat mass, Mesenteric fat ([2]; 100 nmol/kg): 27.4 ± 11.1 %; viscera/brain ratio for fat mass, Perirenal fat ([2]; 100 nmol/kg): 46.6 ± 18.2 %; viscera/brain ratio for fat mass, Scapular fat ([2]; 100 nmol/kg): 32.3 ± 7%; viscera/brain ratio for fat mass, Subcutaneous fat ([2]; 100 nmol/kg): 57.1 ± 21.2 %; content of fat of each part (except scapular fat) relative to placebo ([2]; all dose test groups): significantly reduced
